Patent US6670446B1, “N1 modified glycopeptides” (Eli Lilly and Company, priority 1998, dated 2003)

Key:
Assay type in all cases: cell-based
[1] = tested on: Enterococcus faecalis 2041; test: MIC, standard broth micro-dilution assay, EF 2041
Method: (§1) The antibacterial efficacy of the present compounds is illustrated by Table III. The minimal inhibitory concentrations (MICs) were determined using a standard broth micro-dilution assay.

Enterococcus faecium 180 = test: MIC, standard broth micro-dilution assay, EF 180
Method: as §1

[2] = tested on: Enterococcus faecium 180-1; test: MIC, standard broth micro-dilution assay, EF 180-1
Method: as §1

[3] = tested on: Staphylococcus haemolyticus 105; test: MIC, standard broth micro-dilution assay, SH 105
Method: as §1

Escherichia coli EC14 = test: MIC, standard broth micro-dilution assay, EC 14
Method: as §1

[4] = tested on: Staphylococcus aureus X778; test: MIC, standard broth micro-dilution assay, SA X778
Method: as §1

[5] = tested on: Staphylococcus aureus 491; test: MIC, standard broth micro-dilution assay, SA 491
Method: as §1

[6] = tested on: Staphylococcus haemolyticus 415; test: MIC, standard broth micro-dilution assay, SH 415
Method: as §1

[7] = tested on: Resistant Enterococcus faecium and faecalis; test: MIC, standard broth micro-dilution assay, Resistant; conditions: geometric mean of 4-6 isolates
Method: as §1

[8] = tested on: Sensitive Enterococcus faecium and faecalis; test: MIC, standard broth micro-dilution assay, Sensitive; conditions: geometric mean of 4-6 isolates
Method: as §1

[9] = tested on: Staphylococcus aureus 447; test: MIC, standard broth micro-dilution assay, SA 447
Method: as §1

[10] = tested on: Enterococcus gallinarum 245; test: MIC, standard broth micro-dilution assay, EG 245
Method: as §1

[11] = tested on: Staphylococcus aureus SA1199; test: MIC, standard broth micro-dilution assay, SA 1199
Method: as §1

[12] = tested on: Staphylococcus aureus SA1199A; test: MIC, standard broth micro-dilution assay, SA 1199A
Method: as §1

[13] = tested on: Staphylococcus epidermidis 270; test: MIC, standard broth micro-dilution assay, SE 270
Method: as §1

[14] = tested on: Haemophilus influenzae RD; test: MIC, standard broth micro-dilution assay, HFRD
Method: as §1

[15] = tested on: Staphylococcus aureus S13E
Method: as §1

[16] = tested on: Staphylococcus aureus X400; test: MIC, standard broth micro-dilution assay, SA X400
Method: as §1

[17] = tested on: Staphylococcus aureus 446; test: MIC, standard broth micro-dilution assay, SA 446
Method: as §1

[18] = tested on: Staphylococcus aureus 489; test: MIC, standard broth micro-dilution assay, SA 489
Method: as §1

[19] = tested on: Enterococcus faecalis 276; test: MIC, standard broth micro-dilution assay, EF 276
Method: as §1

Row | SMILES | minimal inhibitory concentration (MIC), EF 2041 [1] | minimal inhibitory concentration (MIC), EF 180 (Enterococcus faecium 180) | minimal inhibitory concentration (MIC), EF 180-1 [2] | minimal inhibitory concentration (MIC), SH 105 [3] | minimal inhibitory concentration (MIC), EC 14 (Escherichia coli EC14) | minimal inhibitory concentration (MIC), SA X778 [4] | minimal inhibitory concentration (MIC), SA 491 [5] | minimal inhibitory concentration (MIC), SH 415 [6] | minimal inhibitory concentration (MIC), Resistant [7] | minimal inhibitory concentration (MIC), Sensitive [8] | minimal inhibitory concentration (MIC), SA 447 [9] | minimal inhibitory concentration (MIC), EG 245 [10] | minimal inhibitory concentration (MIC), SA 1199 [11] | minimal inhibitory concentration (MIC), SA 1199A [12] | minimal inhibitory concentration (MIC), SE 270 [13] | minimal inhibitory concentration (MIC), HFRD [14] | minimal inhibitory concentration (MIC), SA S13E [15] | minimal inhibitory concentration (MIC), SA X400 [16] | minimal inhibitory concentration (MIC), SA 446 [17] | minimal inhibitory concentration (MIC), SA 489 [18] | other results
1 | CC(C)C(C(=O)NC1C(=O)NC(CC(N)=O)C(=O)NC2C(=O)NC3C(=O)NC(C(=O)NC(C(=O)O)c4cc(O)cc(O)c4-c4cc3ccc4O)C(OC3CC(C)(N)C(O)C(C)O3)c3ccc(c(Cl)c3)Oc3cc2cc(c3OC2OC(CO)C(O)C(O)C2OC2CC(C)(N)C(O)C(C)O2)Oc2ccc(cc2Cl)C1O)N(C)C(=O)OC(C)(C)C [Example 41, N^1-(N-BOC-N-methyl-D-valine) derivative of desleucylA82846B] | 8 | >64 | 4 | 16 | >64 | 8 | 4 | 64 | >128 | 84 | 32 | >64 | 16 | 8 | 8 | no | 16 | 16 | 32 | 16 | minimal inhibitory concentration (MIC), EF 276 [19]: 8
2 | CC1OC(OC2c3ccc(c(Cl)c3)Oc3cc4cc(c3OC3OC(CO)C(O)C(O)C3OC3CC(C)(NCc5ccc(-c6ccccc6)cc5)C(O)C(C)O3)Oc3ccc(cc3Cl)C(O)C(NC(=O)C(Cc3ccc(Cl)cc3)NC(=O)OC(C)(C)C)C(=O)NC(CC(N)=O)C(=O)NC4C(=O)NC3C(=O)NC2C(=O)NC(C(=O)O)c2cc(O)cc(O)c2-c2cc3ccc2O)CC(C)(N)C1O [Example 21, N^1-[N-BOC-D-3-(p-chlorophenyl)alanine] derivative of N^DISACC-(p-phenylbenzyl)desleucylA82846B] | 0.5 | 1 | 0.5 | 2 | >64 | 0.5 | 0.5 | 2 | 11 | 1.5 | 0.5 | 1 | 0.5 | no growth | 0.5 | 2 | 0.5 | 0.5 | 0.5 | 0.25 | minimal inhibitory concentration (MIC), EF 276 [19]: 1
3 | CC1OC(OC2c3ccc(c(Cl)c3)Oc3cc4cc(c3OC3OC(CO)C(O)C(O)C3OC3CC(C)(NCc5ccc(-c6ccccc6)cc5)C(O)C(C)O3)Oc3ccc(cc3Cl)C(O)C(NC(=O)C(N)Cc3ccc(Cl)cc3)C(=O)NC(CC(N)=O)C(=O)NC4C(=O)NC3C(=O)NC2C(=O)NC(C(=O)O)c2cc(O)cc(O)c2-c2cc3ccc2O)CC(C)(N)C1O [Example 33, N^1-[L-3-(p-chlorophenyl)alanine] derivative of N^DISACC-(p-phenylbenzyl)desleucylA82846B] | 2 | 4 | 0.5 | 0.5 | >64 | 1 | 0.5 | 0.5 | 27 | 2.6 | 1 | 1 | 0.5 | 0.25 | 0.25 | >64 | 1 | 1 | 1 | 2 | minimal inhibitory concentration (MIC), EF 276 [19]: 4
4 | CC1OC(OC2c3ccc(c(Cl)c3)Oc3cc4cc(c3OC3OC(CO)C(O)C(O)C3OC3CC(C)(NCc5ccc(-c6ccccc6)cc5)C(O)C(C)O3)Oc3ccc(cc3Cl)C(O)C(NC(=O)C(N)CCCCN)C(=O)NC(CC(N)=O)C(=O)NC4C(=O)NC3C(=O)NC2C(=O)NC(C(=O)O)c2cc(O)cc(O)c2-c2cc3ccc2O)CC(C)(N)C1O [Example 23, N^1-D-lysine derivative of N^DISACC-(p-phenylbenzyl)desleucylA82846B] | 0.5 | 0.5 | ≦.06 | 1 | >64 | 2 | 0.5 | 1 | 2 | 0.29 | 1 | 0.125 | 0.5 | 0.25 | 0.125 | >64 | 2 | 2 | 1 | 0.5 | minimal inhibitory concentration (MIC), EF 276 [19]: 0.25
5 | CC(C)CC(N)C(=O)NC1C(=O)NC(CC(N)=O)C(=O)NC2C(=O)NC3C(=O)NC(C(=O)NC(C(=O)O)c4cc(O)cc(O)c4-c4cc3ccc4O)C(OC3CC(C)(N)C(O)C(C)O3)c3ccc(c(Cl)c3)Oc3cc2cc(c3OC2OC(CO)C(O)C(O)C2OC2CC(C)(NCc3ccc(-c4ccccc4)cc3)C(O)C(C)O2)Oc2ccc(cc2Cl)C1O [Example 13, N^1-D-leucine derivative of N^DISACC-(p-phenylbenzyl)desleucylA82846B] | ≦.06 | 0.25 | ≦.06 | 1 | >64 | 1 | 1 | 0.5 | 2.4 | 0.095 | 1 | ≦.06 | 1 | 0.25 | 0.25 | 16 | 0.5 | 0.5 | 1 | 0.5 | minimal inhibitory concentration (MIC), EF 276 [19]: 0.5
